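In this assay, cells in 96-well plates receive the compound at five concentrations for 48 hours. Endpoints are linearly interpolated between the surrounding concentrations. The concentration for full growth arrest is given as TGI.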
What was measured:
Assay in all cases: NCI anticancer screen, dose series, 48 h
[1] = test system: HL-60(TB) leukemia
[2] = test system: MDA-N
[3] = test system: OVCAR-3 ovarian
[4] = test system: RPMI-8226 leukemia
[5] = test system: HOP-92 NSCLC
[6] = test system: SK-MEL-5 melanoma
[7] = test system: SW-620 colon
[8] = test system: HT29 colon
[9] = test system: T-47D breast
[10] = test system: NCI-H226 lung
[11] = test system: SK-OV-3 ovarian
[12] = test system: OVCAR-8 ovarian
[13] = test system: U251 CNS
[14] = test system: MOLT-4 leukemia

Row | Structure (SMILES) | TGI [1] [µM] | TGI [2] [µM] | TGI [3] [µM] | TGI [4] [µM] | TGI [5] [µM] | TGI [6] [µM] | TGI [7] [µM] | TGI [8] [µM] | TGI [9] [µM] | TGI [10] [µM] | TGI [11] [µM] | TGI [12] [µM] | TGI [13] [µM] | TGI [14] [µM]
1 | Cc1c(-c2ccccc2)c(C#N)c2nnn(C)c(=O)n12 | > 100 | > 100 | > 100 | > 100 | > 100 | > 100 | > 100 | > 100 | > 100 | > 100 | > 100 | > 100 | > 100 | –
2 | O=C(/C=C/c1ccccc1Br)c1ccccc1 | 3.07 | 18.4 | 22.1 | – | 32.4 | 22.6 | 3.02 | 9.42 | 15.5 | 36.6 | 30.5 | 8.31 | 2.9 | –
3 | Brc1ccc(N=Nc2ccc3ccccc3n2)cc1 | > 100 | > 100 | – | > 100 | > 100 | > 100 | > 100 | > 100 | > 100 | 66.9 | 49.6 | > 100 | 36.2 | –
4 | COC(=O)C1=C(C(=O)OC)C(OO)(c2ccccc2)OC1=O (stereo unspecified) | > 100 | > 100 | > 100 | – | > 100 | > 100 | > 100 | > 100 | > 100 | > 100 | > 100 | > 100 | > 100 | > 100
5 | O=C1O/C(=C(/Cl)c2c3ccccc3cc3ccccc23)c2ccccc21 | 22.6 | > 100 | 60.9 | 66.4 | 50.3 | 30.7 | > 100 | 43.1 | > 100 | 73.6 | > 100 | 69.9 | > 100 | > 100
6 | COC(=O)/C=C1/OC(c2ccc(C)cc2C)=CC1=O | > 100 | 36.4 | 60.1 | > 100 | 45.6 | 38.2 | 10.4 | 18.8 | 38.4 | 48.9 | 33.1 | 37.4 | 31.1 | > 100
7 | Cc1ccc2nc(-c3ccc(-c4nc5ccc(C)cc5o4)c(O)c3)oc2c1 | > 100 | > 100 | – | > 100 | > 100 | > 100 | > 100 | – | > 100 | > 100 | > 100 | > 100 | > 100 | > 100
8 | CC1(C)N([O-])[N+](=O)C1(Br)c1ccccc1 (stereo unspecified) | > 100 | > 100 | > 100 | > 100 | > 100 | > 100 | > 100 | > 100 | > 100 | > 100 | > 100 | > 100 | > 100 | > 100
9 | CC1=NN(C(=O)CC(=O)Nc2ccc(Cl)cc2)C(=O)C1N=Nc1ccc(S(=O)(=O)c2ccc(N=NC3C(=O)N(C(=O)CC(=O)Nc4ccc(Cl)cc4)N=C3C)cc2)cc1 (stereo unspecified) | > 100 | > 100 | > 100 | > 100 | > 100 | > 100 | > 100 | > 100 | > 100 | > 100 | > 100 | > 100 | 59.6 | > 100
10 | COC(=O)C1Cc2c([nH]c3ccccc23)-c2[nH]c3ccccc3c2CC(NC(C)=O)C(=O)NCC(=O)NCC(=O)N1 (stereo unspecified) | > 100 | > 100 | > 100 | > 100 | > 100 | > 100 | > 100 | > 100 | > 100 | > 100 | > 100 | > 100 | > 100 | > 100
11 | COc1cc(/C=C2\CC(C)C/C(=C\c3ccc(O)c(OC)c3)C2=O)ccc1O (stereo unspecified) | > 30.6 | 7.37 | 6.47 | > 100 | 10.4 | 4.52 | 5.41 | 20.1 | 4.5 | 17.6 | 12.4 | 32.4 | 5.59 | 17.8
12 | N/N=C(/CC(O)(C(F)(F)F)C(F)(F)F)c1ccccc1 | > 10 | > 10 | > 10 | > 10 | > 10 | > 10 | > 10 | > 10 | > 10 | > 10 | > 10 | > 10 | > 10 | > 10
13 | COC(=O)/C=C/C(=O)Nc1cc(Cl)c(Cl)cc1CC(=O)N(C)[C@H]1CCCC[C@@H]1N1CCCC1 | 5.33 | 25.2 | 16.3 | 19.2 | 18.7 | 22.9 | 26.7 | 41 | 28.5 | 31.7 | 37.8 | 16.3 | 31.6 | 13.8
14 | O=S1(=O)c2ccccc2-c2nccc3ccnc1c23 | > 100 | > 100 | > 100 | 85.6 | > 100 | 27.7 | > 100 | 23.2 | > 100 | > 100 | > 100 | > 100 | > 100 | 6.87
15 | CC(CC(C)[C@H]1CCC2[C@H]3C(CC(=O)[C@@]21C)[C@@]1(C)CCC(O)C[C@H]1C[C@@H]3O)C(=O)O (stereo partly specified) | > 100 | > 100 | – | > 100 | > 100 | – | > 100 | > 100 | > 100 | > 100 | – | > 100 | > 100 | > 100
16 | C=CC[C@@]12CCC(=O)C=C1CCCC2=O | > 100 | > 100 | > 100 | > 100 | > 100 | > 100 | > 100 | > 100 | > 100 | > 100 | > 100 | – | > 100 | > 100
17 | COc1ccc(C(c2cc(OC)c(OC)c(OC)c2)N2C(=O)CCC2C(=O)O)cc1 (stereo unspecified) | > 100 | 56.9 | > 100 | > 100 | > 100 | > 100 | > 100 | > 100 | > 100 | > 100 | > 100 | > 100 | > 100 | > 100

Reference: PubChem BioAssay (NCI)
